Assay results as given in PubChem BioAssay AID2060603 (Molecular Pharmacology Branch, DTP, NCI, 2025).

System: 422866-222-R5-J1-PDC spheroid viability
Assay: Anticancer human tumor 422866-222-R5-J1-PDC patient-derived pancreatic adenocarcinoma cell line growth inhibition [CLK]
Details: spheroids with HUVEC and MSC; for IC50: curve of first compound; for viability, T/C: stronger effect = lower value
Outline: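 Multi-cell-type spheroids combined patient-derived tumor cells with HUVEC endothelial cells and human mesenchymal stem cells. Paired agents were dosed in half-log steps down from about clinical Cmax, or from 10 microM where Cmax was unknown.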

[1] = second compound 0.0316 µM, first compound 0.0316 µM
[2] = second compound 0.0316 µM, first compound 0.1 µM
[3] = second compound 0.1 µM, first compound 0.0316 µM
[4] = second compound 0.1 µM, first compound 0.1 µM
[5] = second compound 0.316 µM, first compound 0.0316 µM
[6] = second compound 0.316 µM, first compound 0.1 µM
[7] = second compound 1 µM, first compound 0.0316 µM
[8] = second compound 1 µM, first compound 0.1 µM
[9] = second compound 3.16 µM, first compound 0.0316 µM
[10] = second compound 3.16 µM, first compound 0.1 µM
[11] = second compound 10 µM, first compound 0.0316 µM
[12] = second compound 10 µM, first compound 0.1 µM
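Further: spheroids exposed to agents for seven days before readout.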

Compound `COc1ccc([C@@H](O)c2cc(-c3ncnc4cc(N5CCOCC5)ccc34)c(F)cc2Cl)nn1` + CN1CCN(c2cc(C(=O)Nc3cc4cc(-c5cnn(C)c5)ccc4cn3)ccn2)CC1 has an IC50 (second compound 0.0316 µM) of 5480 nM, an IC50 (second compound 0.1 µM) of 5040 nM and an IC50 (second compound 0.316 µM) of 7110 nM. For the same compound, the IC50 (second compound 1 µM) was under 31.6 nM, the IC50 (second compound 3.16 µM) was under 31.6 nM and the IC50 (second compound 10 µM) was under 31.6 nM. It also gave a viability, T/C [1] of 116%, a viability, T/C [2] of 96.8% and a viability, T/C (second compound 0.0316 µM, first compound 0.316 µM) of 88.8%. For the same compound, the viability, T/C (second compound 0.0316 µM, first compound 1 µM) was 77.4%, the viability, T/C (second compound 0.0316 µM, first compound 3.16 µM) was 59% and the viability, T/C (second compound 0.0316 µM, first compound 10 µM) was 39.5%. For the same compound, the viability, T/C [3] was 114%, the viability, T/C [4] was 98.8% and the viability, T/C (second compound 0.1 µM, first compound 0.316 µM) was 94.3%. The viability, T/C (second compound 0.1 µM, first compound 1 µM) was 73.6%, the viability, T/C (second compound 0.1 µM, first compound 3.16 µM) was 56% and the viability, T/C (second compound 0.1 µM, first compound 10 µM) was 40.4%. The viability, T/C [5] was 98.7%, the viability, T/C [6] was 87.8% and the viability, T/C (second compound 0.316 µM, first compound 0.316 µM) was 81.4%. The viability, T/C (second compound 0.316 µM, first compound 1 µM) was 77.7%, the viability, T/C (second compound 0.316 µM, first compound 3.16 µM) was 52.9% and the viability, T/C (second compound 0.316 µM, first compound 10 µM) was 48%. The viability, T/C [7] was 18.2%, the viability, T/C [8] was 18.5% and the viability, T/C (second compound 1 µM, first compound 0.316 µM) was 22.9%. It also gave a viability, T/C (second compound 1 µM, first compound 1 µM) of 16.7%, a viability, T/C (second compound 1 µM, first compound 3.16 µM) of 20.9% and a viability, T/C (second compound 1 µM, first compound 10 µM) of 19.1%. The viability, T/C [9] was 7.87%, the viability, T/C [10] was 8.87% and the viability, T/C (second compound 3.16 µM, first compound 0.316 µM) was 9.25%. For the same compound, the viability, T/C (second compound 3.16 µM, first compound 1 µM) was 8.71%, the viability, T/C (second compound 3.16 µM, first compound 3.16 µM) was 11.4% and the viability, T/C (second compound 3.16 µM, first compound 10 µM) was 14.6%. For the same compound, the viability, T/C [11] was 1.27%, the viability, T/C [12] was 1.38% and the viability, T/C (second compound 10 µM, first compound 0.316 µM) was 1.7%. For the same compound, the viability, T/C (second compound 10 µM, first compound 1 µM) was 2.13%, the viability, T/C (second compound 10 µM, first compound 3.16 µM) was 3.04% and the viability, T/C (second compound 10 µM, first compound 10 µM) was 2.69%.
In the case of `Cn1ncnc1[C@H]1c2n[nH]c(=O)c3cc(F)cc(c23)N[C@@H]1c1ccc(F)cc1` + CNC(=O)c1ccc(Nc2nc(OC3CCCC3)c3c(-c4ccc5nc(C)oc5c4)c[nH]c3n2)c(OC)c1, the IC50 (second compound 0.0316 µM) is reported as over 100 nM, the IC50 (second compound 0.1 µM) is reported as over 100 nM and the IC50 (second compound 0.316 µM) is reported as over 100 nM. For the same compound, the IC50 (second compound 1 µM) was over 100 nM, the IC50 (second compound 3.16 µM) was over 100 nM and the IC50 (second compound 10 µM) was over 100 nM. For the same compound, the viability, T/C (second compound 0.0316 µM, first compound 0.000316 µM) was 105%, the viability, T/C (second compound 0.0316 µM, first compound 0.001 µM) was 112% and the viability, T/C (second compound 0.0316 µM, first compound 0.00316 µM) was 102%. It also gave a viability, T/C (second compound 0.0316 µM, first compound 0.01 µM) of 91.2%, a viability, T/C [1] of 89.6% and a viability, T/C [2] of 78.6%. For the same compound, the viability, T/C (second compound 0.1 µM, first compound 0.000316 µM) was 98.8%, the viability, T/C (second compound 0.1 µM, first compound 0.001 µM) was 91% and the viability, T/C (second compound 0.1 µM, first compound 0.00316 µM) was 84.2%. The viability, T/C (second compound 0.1 µM, first compound 0.01 µM) was 89.8%, the viability, T/C [3] was 74.8% and the viability, T/C [4] was 83.8%. For the same compound, the viability, T/C (second compound 0.316 µM, first compound 0.000316 µM) was 84.8%, the viability, T/C (second compound 0.316 µM, first compound 0.001 µM) was 75.2% and the viability, T/C (second compound 0.316 µM, first compound 0.00316 µM) was 66.3%. It also gave a viability, T/C (second compound 0.316 µM, first compound 0.01 µM) of 68%, a viability, T/C [5] of 80.9% and a viability, T/C [6] of 64.7%. The viability, T/C (second compound 1 µM, first compound 0.000316 µM) was 75.8%, the viability, T/C (second compound 1 µM, first compound 0.001 µM) was 65% and the viability, T/C (second compound 1 µM, first compound 0.00316 µM) was 63.7%. The viability, T/C (second compound 1 µM, first compound 0.01 µM) was 52.4%, the viability, T/C [7] was 52.4% and the viability, T/C [8] was 54.6%. It also gave a viability, T/C (second compound 3.16 µM, first compound 0.000316 µM) of 61.9%, a viability, T/C (second compound 3.16 µM, first compound 0.001 µM) of 73.8% and a viability, T/C (second compound 3.16 µM, first compound 0.00316 µM) of 60.1%. For the same compound, the viability, T/C (second compound 3.16 µM, first compound 0.01 µM) was 54.3%, the viability, T/C [9] was 53.8% and the viability, T/C [10] was 52%. For the same compound, the viability, T/C (second compound 10 µM, first compound 0.000316 µM) was 61.8%, the viability, T/C (second compound 10 µM, first compound 0.001 µM) was 59.6% and the viability, T/C (second compound 10 µM, first compound 0.00316 µM) was 55.9%. It also gave a viability, T/C (second compound 10 µM, first compound 0.01 µM) of 48.6%, a viability, T/C [11] of 65% and a viability, T/C [12] of 71.9%.
